Results published in patent US12162858B2, “Quinoline derivatives as inhibitors of AXL/MER RTK and CSF1R” (QURIENT CO., LTD., priority 2018, dated 2024).

Columns and labels:
[1] = target: T1, Axl (Homo sapiens, UniProt P30530); test: Cellular Axl inhibition ELISA (p-Axl, Gas6-induced) using H1299 cells; type: cell-based; set-up: especially H1299 cell endogenously expresses Axl; endogenous in cells; host or cells: H1299; settings: read-out: Cellular Axl activity by H1299 Elisa (IC50)
T1 sequence (P30530 26-894): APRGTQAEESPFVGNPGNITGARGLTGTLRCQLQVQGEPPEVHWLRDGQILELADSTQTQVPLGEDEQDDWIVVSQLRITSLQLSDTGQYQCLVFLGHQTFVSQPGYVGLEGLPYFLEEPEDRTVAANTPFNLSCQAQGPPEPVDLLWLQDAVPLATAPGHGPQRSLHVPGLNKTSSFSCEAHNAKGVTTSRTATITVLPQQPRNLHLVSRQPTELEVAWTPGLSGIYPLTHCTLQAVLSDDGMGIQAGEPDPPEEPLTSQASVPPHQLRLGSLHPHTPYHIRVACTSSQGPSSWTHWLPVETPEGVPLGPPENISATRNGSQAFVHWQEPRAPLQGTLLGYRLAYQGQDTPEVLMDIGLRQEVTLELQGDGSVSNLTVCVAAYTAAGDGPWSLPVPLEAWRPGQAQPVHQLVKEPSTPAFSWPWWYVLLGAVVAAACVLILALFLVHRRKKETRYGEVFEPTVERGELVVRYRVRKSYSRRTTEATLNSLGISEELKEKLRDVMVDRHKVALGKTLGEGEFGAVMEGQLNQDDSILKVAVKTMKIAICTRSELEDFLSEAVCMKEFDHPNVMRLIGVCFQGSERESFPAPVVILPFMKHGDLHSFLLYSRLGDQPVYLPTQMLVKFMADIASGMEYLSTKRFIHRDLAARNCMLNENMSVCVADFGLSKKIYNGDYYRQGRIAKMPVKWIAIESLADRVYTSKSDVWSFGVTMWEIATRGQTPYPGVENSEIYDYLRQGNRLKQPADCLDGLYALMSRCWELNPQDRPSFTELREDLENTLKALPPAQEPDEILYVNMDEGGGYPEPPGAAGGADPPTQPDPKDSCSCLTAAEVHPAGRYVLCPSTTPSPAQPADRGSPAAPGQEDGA
Description: Axl is expressed in several of malignant cancer cells; especially H1299 cell endogenously expresses Axl; and an increased phosphorylation of Axl (p-Axl) can be observed, when induced by the Axl ligand, Ga6.
The H1299 cells should be 40-80% confluent in the cell culture flask. Then cells are washed with DPBS and trypsinized. After centrifugation, the cell pellet is re-suspended with pre-warmed culture medium (RPMI1640, 10% FBS) and cells are separated by pipetting 6 times up and down with a 10 ml serological pipette. The cell suspension was diluted to a final concentration of 1.25×10^5 cells/ml. Then 80 μl/well cell suspension is added to the plate. Cell-plates are incubated at 37° C./5% CO2 overnight. Compounds were dissolved by DMSO to 10 mM, and kept in nitrogen cabinet. Prepare the compounds stock plate, the reference compounds concentration starts at 0.50 mM (5 μl+95 μl DMSO), and the tested compounds start at 1.5 mM (6 μl+34 μl DMSO); Then make a 3-fold dilution series (10 doses) compounds. Then dilute compounds by the medium in the mid plate (2 μl compounds+198 μl medium). Transfer 20 μl diluted compounds from mid plate to the cell coated plate. Cell-plates are incubated at 37° C./5% CO2 for 24 h. Add 25 μl of Human Gas6 (1000 ng/ml) to 96-well plate; the final concentration of Human Gas6 is 200 ng/ml. Incubate the plates at 37° C./5% CO2 for 1 h. Remove medium and wash cells once with 300 ul/well ice-cold 1×PBS. Then remove PBS and add 100 μl/well ice-cold 1× Cell Lysis Buffer to 96-well plate. The plate is shaken for 40 min at 4° C. Then plates can be stored at −20° C. After the micro-wells strips have reached room temperature, break off the required number of micro-wells. Place the micro-wells in the strip holder. Unused micro-wells must be resealed and stored at 4° C. immediately. Add 60 μl of cell lysate to the appropriate well. Seal with tape and press firmly onto top of micro-wells. Incubate the plate at 37° C. for 2 h. Gently remove the tape and wash wells 5 times with 1× Wash Buffer, 300 μl each time for each well. Add 100 μl of reconstituted Detection Antibody (green color) to each well. Seal with tape and incubate the plate at 37° C. for 1 h. Repeat wash procedure. Add 100 μl of reconstituted HRP Linked secondary antibody to each well. Seal with tape and incubate the plate at 37° C. for 30 min. Repeat wash procedure. Add 100 μl of TMB Substrate to each well. Seal with tape and incubate the plate at 37° C. for 15 min. Add 100 μl of STOP Solution to each well. Shake gently for a few seconds. Read absorbance at 450 nm within 30 min after adding STOP Solution. Calculations and Formulas: The following calculations and formulas are used for data analysis using XL Fit software: The curve fitting was made using the Sigmoidal Dose-Response Model (Fit model, 205).

[2] = target: T1, Axl; test: LanthaScreen Eu kinase binding assay for Axl; settings: read-out: Axl kinase binding activity (Kd)
Description: LanthaScreen® Eu Kinase Binding assays were conducted at Life Technologies using the manufacturer's specifications for each kinase indicated.
Briefly, the principle behind this assay is based upon the binding and displacement of an Alexa Fluor 647-labeled tracer to the kinase of interest. Binding of the tracer to the kinase is detected using an EU-labeled anti-tag antibody. Simultaneous binding of both the tracer and antibody to the kinase gives rise to a FRET-signal. Binding of an inhibitor to the kinase competes for binding with the tracer, resulting in a loss of FRET-signal.
A given compound was diluted in DMSO to make a stock compound solution. The stock compound solution was serially diluted over eight steps in DMSO. Each diluted compound solution in DMSO was diluted in kinase buffer. Afterwards four kinds of working solution were prepared. First, Tracer-Working solution consists of Tracer 236 and Kinase Buffer. Second, Axl, Mer, Tyro3 or Met/anti-GST-AB-Working solution contained one of the kinases Axl, and Mer or anti-GST-AB (=anti glutathione-S-transferase antibody) in Kinase Buffer. Third, anti-GST-AB-Working solution was made with anti-GST-AB and Kinase Buffer. Last, in the DMSO-Working solution DMSO was added to Kinase Buffer to a final concentration to 3%. Each of the four kinds of working solutions were separately added to the assay plate and then incubated for 1 h at room temperature. After incubation, the assay plate was measured with respect to the FRET-Signal with the EnVision (Perkin Elmer) using the program LanthaHTRF-Assay. Data evaluation was done in the Quattro Workflow software. Kd (the equilibrium dissociation constant) values were calculated relative to vehicle (DMSO) control wells.

`COc1cc2nccc(Oc3ccc(NC(=O)c4nn(CCOC5CC5)cc4OCC(F)(F)F)cc3)c2cc1OC` [Compound 118] showed an IC50 [1] of under 500 nM and a Kd [2] of under 100 nM.

`CNCCn1cc(OCC(F)(F)F)c(C(=O)Nc2ccc(Oc3ccnc4cc(OC)c(OC)cc34)cc2)n1` [Compound 119] was tested, and the IC50 [1] was at least 1000 nM and the Kd [2] was 100 to 500 nM.

For `COc1cc2nccc(Oc3ccc(NC(=O)c4nn(CCOC5CC5)cc4OCC(F)(F)F)nn3)c2cc1OC` [Compound 120], the IC50 [1] was 500 to 1000 nM and the Kd [2] was under 100 nM.

`COc1cc2nccc(Oc3ccc(NC(=O)c4nn(C5CCCC5)cc4OCC(F)(F)F)nn3)c2cc1OC` [Compound 121] was tested, and the IC50 [1] was under 500 nM and the Kd [2] was under 100 nM.

`COc1cc2nccc(Oc3ccc(NC(=O)c4nn(C5CCNC5)cc4OCC(F)(F)F)nn3)c2cc1OC` (centres unmarked) [Compound 122] was tested, and the IC50 [1] was at least 1000 nM and the Kd [2] was 100 to 500 nM.

Compound `COc1cc2nccc(Oc3ccc(NC(=O)c4nn(CC5COC5)cc4OCC(F)(F)F)nn3)c2cc1OC` [Compound 123] has an IC50 [1] of under 500 nM and a Kd [2] of under 100 nM.

`COc1cc2nccc(Oc3ccc(NC(=O)c4nn(CC(C)C)cc4OCC(F)(F)F)nn3)c2cc1OC` [Compound 124] was tested, and the IC50 [1] was under 500 nM and the Kd [2] was under 100 nM.

Compound `COc1cc2nccc(Oc3ccc(NC(=O)c4nn(CCN)cc4OCC(F)(F)F)nn3)c2cc1OC` [Compound 125] has an IC50 [1] of at least 1000 nM and a Kd [2] of at least 500 nM.

Work on `COCCn1cc(OCC(F)(F)F)c(C(=O)Nc2ccc(Oc3ccnc4cc(OC)c(OC)cc34)nn2)n1` [Compound 126] yielded an IC50 [1] of under 500 nM and a Kd [2] of under 100 nM.

`CNCCn1cc(OCC(F)(F)F)c(C(=O)Nc2ccc(Oc3ccnc4cc(OC)c(OC)cc34)nn2)n1` [Compound 127] was tested, and the IC50 [1] was at least 1000 nM and the Kd [2] was at least 500 nM.

Work on `COc1cc2nccc(Oc3ccc(NC(=O)c4nn(C5CCOC5)cc4OCC(F)(F)F)nn3)c2cc1OC` (centres unmarked) [Compound 128] yielded an IC50 [1] of under 500 nM and a Kd [2] of under 100 nM.

With `COc1cc2nccc(Oc3ccc(NC(=O)c4nn(CCO)cc4OCC(F)(F)F)cn3)c2cc1OC` [Compound 129] the IC50 [1] was at least 1000 nM and the Kd [2] was 100 to 500 nM.

`COc1cc2nccc(Oc3ccc(NC(=O)c4nn(CCOC5CC5)cc4OCC(F)(F)F)cn3)c2cc1OC` [Compound 130] gave an IC50 [1] of at least 1000 nM and a Kd [2] of under 100 nM.

In the case of `COc1cc2nccc(Oc3ccc(NC(=O)c4nn(C5CCCC5)cc4OCC(F)(F)F)cn3)c2cc1OC` [Compound 131], the IC50 [1] is reported as under 500 nM and the Kd [2] is reported as under 100 nM.

For `COc1cc2nccc(Oc3ccc(NC(=O)c4nn(C5CCNC5)cc4OCC(F)(F)F)cn3)c2cc1OC` (centres unmarked) [Compound 132], the IC50 [1] was at least 1000 nM and the Kd [2] was at least 500 nM.

Work on `COc1cc2nccc(Oc3ccc(NC(=O)c4nn(C5CCN(C)C5)cc4OCC(F)(F)F)cn3)c2cc1OC` (centres unmarked) [Compound 133] yielded an IC50 [1] of at least 1000 nM and a Kd [2] of 100 to 500 nM.

`COc1cc2nccc(Oc3ccc(NC(=O)c4nn(CC5COC5)cc4OCC(F)(F)F)cn3)c2cc1OC` [Compound 134] showed an IC50 [1] of under 500 nM and a Kd [2] of under 100 nM.

`COc1cc2nccc(Oc3ccc(NC(=O)c4nn(CCN)cc4OCC(F)(F)F)cn3)c2cc1OC` [Compound 135] was tested, and the IC50 [1] was at least 1000 nM and the Kd [2] was at least 500 nM.

In the case of `COc1cc2nccc(Oc3ccc(NC(=O)c4nn(CC(C)O)cc4OCC(F)(F)F)cn3)c2cc1OC` (centres unmarked) [Compound 136], the IC50 [1] is reported as at least 1000 nM and the Kd [2] is reported as under 100 nM.

Work on `CNCCn1cc(OCC(F)(F)F)c(C(=O)Nc2ccc(Oc3ccnc4cc(OC)c(OC)cc34)nc2)n1` [Compound 137] yielded an IC50 [1] of at least 1000 nM and a Kd [2] of at least 500 nM.

Compound `COc1cc2nccc(Oc3ccc(NC(=O)c4nn(C5CCOC5)cc4OCC(F)(F)F)cn3)c2cc1OC` (centres unmarked) [Compound 138] has an IC50 [1] of under 500 nM and a Kd [2] of under 100 nM.

`CCCn1cc(OCC(F)(F)F)c(C(=O)Nc2ccc(Oc3ccnc4cc(OC)c(OC)cc34)nc2)n1` [Compound 139] gave an IC50 [1] of under 500 nM and a Kd [2] of under 100 nM.

`CCCn1cc(OCCNC)c(C(=O)Nc2ccc(Oc3ccnc4cc(OC)c(OC)cc34)cn2)n1` [Compound 140] was tested, and the IC50 [1] was at least 1000 nM and the Kd [2] was at least 500 nM.

`CNCCOc1cn(C2CC2)nc1C(=O)Nc1ccc(Oc2ccnc3cc(OC)c(OC)cc23)cn1` [Compound 141] was tested, and the IC50 [1] was at least 1000 nM and the Kd [2] was at least 500 nM.

`COc1cc2nccc(Oc3ccc(NC(=O)c4nn(C5CC5)cc4NCCC(F)(F)F)nc3)c2cc1OC` [Compound 142] was tested, and the IC50 [1] was under 500 nM and the Kd [2] was under 100 nM.

`COc1cc2nccc(Oc3ccc(NC(=O)c4nn(C5CC5)cc4OCC4COC4)nc3)c2cc1OC` [Compound 143] was tested, and the IC50 [1] was under 500 nM and the Kd [2] was under 100 nM.

`COc1cc2nccc(Oc3ccc(NC(=O)c4nn(C5CC5)cc4OCC4CNC4)nc3)c2cc1OC` [Compound 144] was tested, and the IC50 [1] was at least 1000 nM and the Kd [2] was 100 to 500 nM.

`COc1cc2nccc(Oc3ccc(NC(=O)c4nn(C5CC5)cc4NCC(F)(F)F)nc3)c2cc1OC` [Compound 145] gave an IC50 [1] of under 500 nM and a Kd [2] of under 100 nM.

In the case of `COc1cc2nccc(Oc3ccc(NC(=O)c4nn(C5CC5)cc4NCCC(F)(F)F)nn3)c2cc1OC` [Compound 146], the IC50 [1] is reported as under 500 nM and the Kd [2] is reported as under 100 nM.

`COc1cc2nccc(Oc3ccc(NC(=O)c4nn(C5CC5)cc4OC(C)C)nn3)c2cc1OC` [Compound 147] was tested, and the IC50 [1] was under 500 nM and the Kd [2] was under 100 nM.

Compound `COc1cc2nccc(Oc3ccc(NC(=O)c4nn(C5CC5)cc4NCC(F)(F)F)nn3)c2cc1OC` [Compound 148] has an IC50 [1] of under 500 nM and a Kd [2] of under 100 nM.

`COc1cc2nccc(Oc3ccc(NC(=O)c4nn(C5CC5)cc4OCC4CCC4)nn3)c2cc1OC` [Compound 149] was tested, and the IC50 [1] was under 500 nM and the Kd [2] was under 100 nM.

`COCCOc1cn(CC(C)O)nc1C(=O)Nc1ccc(Oc2ccnc3cc(OC)c(OC)cc23)cn1` (centres unmarked) [Compound 150] showed an IC50 [1] of under 500 nM and a Kd [2] of under 100 nM.

`COc1cc2nccc(Oc3ccc(NC(=O)c4nn(CC(C)O)cc4OC(C)C)nc3)c2cc1OC` (centres unmarked) [Compound 151] was tested, and the IC50 [1] was under 500 nM and the Kd [2] was under 100 nM.
